Reference: patent US20040110771A1, “7-(r)-aminotriazolopyrimidines, the production thereof and use of the same for combatting phytopathogenic fungi” (priority 2000, published 2004)

Tests used:
Assay type in all cases: in vivo
Puccinia recondita = test: Curative activity against brown rust of wheat caused by Puccinia recondita; details: curative spray 24 h after inoculation, wheat seedlings "Kanzler", 7 days
Summary of the method: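 Wheat seedlings (cv. Kanzler) inoculated with brown rust spores and held 24 h at 90–95% humidity and 20–22°C, then sprayed to runoff with the emulsified compound the next day. Rust development on leaves scored after 7 days in greenhouse at 20–22°C and 65–70% relative humidity.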

Pyrenophora teres = test: Activity against net blotch of barley caused by Pyrenophora teres; details: barley seedlings "Igri", inoculated 24 h after spraying, 6 days
Summary of the method: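 Potted barley seedlings (cv. Igri) were sprayed to runoff with aqueous compound preparation, then inoculated with P. teres spores 24 h after the spray dried. Plants were kept in a greenhouse at 20-24° C and 95-100% relative humidity, and disease was scored visually after 6 days as % infected leaf area.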

Septoria tritici = test: Protective activity against Septoria foliar blotch disease of wheat caused by Septoria tritici; details: wheat seedlings "Riband", inoculated 24 h after spraying, 2 weeks
Protocol: The active compounds were prepared separately or jointly as a 10% strength emulsion in a mixture of 70% by weight of cyclohexanone, 20% by weight of Nekanil® LN (Lutensol® AP6, wetting agent having emulsifying and dispersing action based on ethoxylated alkylphenols) and 10% by weight of Wettol® EM (nonionic emulsifier based on ethoxylated castor oil) and diluted with water to the desired concentration.
Leaves of potted wheat seedlings of the cultivar “Riband” were sprayed to runoff point with an aqueous preparation of active compound which had been prepared from a stock solution made of 10% of active compound, 85% of cyclohexanone and 5% of emulsifier. 24 hours after the spray coating had dried on, they were inoculated with an aqueous spore suspension of Septoria tritici. The suspension contained 2.0×10^6 spores/ml. The test plants were then placed in a greenhouse at 18-22° C. and a relative atmospheric humidity of close to 100%. After 2 weeks, the extent of the development of the disease was determined visually in % infection of the entire leaf area.

[1] = tested on: Blumeria graminis forma specialis tritici; test: Activity against mildew of wheat caused by Blumeria graminis forma specialis tritici; details: wheat seedlings "Kanzler", dusted with spores 24 h after spraying, 7 days
Summary of the method: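 Compound, emulsified then diluted in water, sprayed to runoff onto leaves of potted wheat seedlings cv. Kanzler; inoculated with Blumeria graminis f. sp. tritici spores 24 h after the coating dried. Plants kept in greenhouse at 20-24° C., 60-90% relative humidity; mildew scored visually after 7 days as % infected leaf area.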

SMILES | % infection of the leaves after application of an aqueous preparation comprising . . . ppm of active compound (Puccinia recondita; 16 ppm) | % infection of the leaves after application of an aqueous preparation comprising . . . ppm of active compound (Puccinia recondita; 63 ppm) | % infection of the leaves after application of an aqueous preparation comprising . . . ppm of active compound (Pyrenophora teres; 16 ppm) | % infection of the leaves after application of an aqueous preparation comprising . . . ppm of active compound (Septoria tritici; 16 ppm) | % infection of the leaves after application of an aqueous preparation comprising . . . ppm of active compound (Septoria tritici; 63 ppm) | % infection of the leaves after application of an aqueous preparation comprising . . . ppm of active compound (Septoria tritici; 250 ppm) | % infection of the leaves after application of an aqueous preparation comprising . . . ppm of active compound ([1]; 16 ppm) | % infection of the leaves after application of an aqueous preparation comprising . . . ppm of active compound ([1]; 63 ppm) | % infection of the leaves after application of an aqueous preparation comprising . . . ppm of active compound ([1]; 250 ppm) | % infection of the leaves after application of an aqueous preparation comprising . . . ppm of active compound (Puccinia recondita; 250 ppm) | % infection of the leaves after application of an aqueous preparation comprising . . . ppm of active compound (Pyrenophora teres; 63 ppm) | % infection of the leaves after application of an aqueous preparation comprising . . . ppm of active compound (Pyrenophora teres; 250 ppm)
CC(C)C(C)Nc1c(-c2c(F)cc(F)cc2F)c(Cl)nc2ncnn12 (centres unmarked) [I.-14] | 0% | 0% | 3% | 15% | 15% | 15% | 30% | 30% | 20% |  |  | 
CC(C)[C@H](C)Nc1c(-c2c(F)cccc2F)c(Cl)nc2ncnn12 [comparison (S)-amine of I.-5] |  | 100% | 80% | 100% | 100% | 100% | 100% | 100% | 100% | 100% |  | 
CC[C@H](C)Nc1c(-c2c(Cl)cccc2Cl)c(Cl)nc2ncnn12 [comparison (S)-amine of I.-7] | 100% |  | 100% | 90% | 90% | 90% |  |  | 100% |  | 100% | 100%
CC(C)[C@H](C)Nc1c(-c2c(F)cc(F)cc2F)c(Cl)nc2ncnn12 [comparison (S)-amine of I.-14] | 100% | 5% | 40% | 90% | 70% | 70% | 100% | 80% | 80% |  |  | 
CC(Nc1c(-c2ccccc2Cl)c(Cl)nc2ncnn12)C(C)(C)C [comparison (S)-amine of I.-44a] |  |  | 100% | 100% | 100% | 100% | 100% | 100% | 100% | 100% | 30% | 
